Reference: the NIST ThermoML archive (doi:10.1016/j.jct.2017.12.023)

Test: refractive index (Na D-line) (dimensionless); xn = mol fraction of the nth substance listed
Conditions: 100 kPa, Liquid, Standard Abbe refractometry

CCOS(=O)(=O)[O-].CCn1cc[n+](C)c1 [1-ethyl-3-methylimidazolium ethyl sulfate] + CN1CCCC1=O
refractive index
Conditions | x1 = 0.1009 | x1 = 0.2012 | x1 = 0.3021 | x1 = 0.4012 | x1 = 0.4973 | x1 = 0.596 | x1 = 0.6998 | x1 = 0.7961 | x1 = 0.8821 | x1 = 1
313.15 K | 1.46634 | 1.46948 | 1.47118 | 1.47225 | 1.473 | 1.47343 | 1.47375 | 1.47423 | 1.47453 | 1.47474
318.15 K | 1.4644 | 1.46772 | 1.4695 | 1.47069 | 1.47143 | 1.47195 | 1.47229 | 1.47284 | 1.47317 | 1.47341
323.15 K | 1.46246 | 1.4659 | 1.46777 | 1.46906 | 1.46985 | 1.47045 | 1.47084 | 1.47143 | 1.4718 | 1.47206
328.15 K | 1.46054 | 1.46409 | 1.46607 | 1.46742 | 1.46828 | 1.46895 | 1.46939 | 1.47005 | 1.47044 | 1.47075
333.15 K | 1.45863 | 1.46232 | 1.46438 | 1.46584 | 1.46677 | 1.46746 | 1.46794 | 1.46865 | 1.4691 | 1.46943
